According to the supplement of paper PMC10307832:

What follows are cell lines tested with Cc1cc([C@@H](C)Nc2ccccc2C(=O)O)c2nc(N3CCOCC3)cc(=O)n2c1 [AZD6482] + CC(=O)Nc1cccc(-n2c(=O)n(C3CC3)c(=O)c3c(Nc4ccc(I)cc4F)n(C)c(=O)c(C)c32)c1 [Trametinib] (partner 0.02 µM) (assay: relative viability (nuclei count vs DMSO), 5 days (fraction); higher = more cells survive). Settings: first compound 0.08 µM.
Procedure, shortened: (§1)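 Dosing by pin tool came one day after lung cancer cell lines were seeded in 1536-well plates, using either one drug or a fixed anchor-drug dose plus five library-drug doses (not always all listed) in √10 steps. After 5 days, nuclei were counted on 4× images. Relative viability is treated-well nuclei count divided by vehicle-well nuclei count, and values are medians of duplicate plates.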
For RERF-LC-KJ, the relative viability was 0.767.
Cell Line NCI-H358 has a relative viability of 0.133.
In the case of NCI-H650, the relative viability is reported as 0.958.
PC-3 [JPC-3] showed a relative viability of 0.556.

Same assay, conditions: first compound 0.253 µM
RERF-LC-KJ showed a relative viability of 0.764.
In the case of NCI-H358, the relative viability is reported as 0.131.
NCI-H650 gave a relative viability of 0.906.
PC-3 [JPC-3] showed a relative viability of 0.694.

Same assay, conditions: first compound 0.8 µM
RERF-LC-KJ showed a relative viability of 0.74.
NCI-H358 showed a relative viability of 0.12.
Work on NCI-H650 yielded a relative viability of 0.805.
PC-3 [JPC-3] was tested, and the relative viability was 0.65.

Same assay, conditions: first compound 2.53 µM
For RERF-LC-KJ, the relative viability was 0.682.
In the case of NCI-H358, the relative viability is reported as 0.117.
NCI-H650 gave a relative viability of 0.663.
Work on PC-3 [JPC-3] yielded a relative viability of 0.564.

Same assay, conditions: first compound 8 µM
RERF-LC-KJ gave a relative viability of 0.584.
NCI-H358 gave a relative viability of 0.113.
NCI-H650 showed a relative viability of 0.711.
Cell Line PC-3 [JPC-3] has a relative viability of 0.55.

The cell lines below were run with Cc1cc([C@@H](C)Nc2ccccc2C(=O)O)c2nc(N3CCOCC3)cc(=O)n2c1 [AZD6482] + C[C@]1(O)C[C@@H](c2nc(-c3ccc4ccc(-c5ccccc5)nc4c3)c3c(N)nccn32)C1 [Linsitinib] (partner 1 µM) in the same assay as above. Settings: first compound 0.08 µM.
Procedure, shortened: as §1
RERF-LC-KJ gave a relative viability of 0.757.
Cell Line NCI-H358 has a relative viability of 0.545.
Cell Line NCI-H650 has a relative viability of 0.856.
PC-3 [JPC-3] gave a relative viability of 0.911.

Same assay, conditions: first compound 0.253 µM
With RERF-LC-KJ the relative viability was 0.814.
NCI-H358 showed a relative viability of 0.795.
Cell Line PC-3 [JPC-3] has a relative viability of 1.04.

Same assay, conditions: first compound 0.8 µM
RERF-LC-KJ was tested, and the relative viability was 0.822.
NCI-H358 gave a relative viability of 0.679.
NCI-H650 showed a relative viability of 0.753.
For PC-3 [JPC-3], the relative viability was 1.02.

Same assay, conditions: first compound 2.53 µM
RERF-LC-KJ showed a relative viability of 0.764.
For NCI-H358, the relative viability was 0.293.
With NCI-H650 the relative viability was 0.362.
PC-3 [JPC-3] gave a relative viability of 0.787.

Same assay, conditions: first compound 8 µM
RERF-LC-KJ gave a relative viability of 0.784.
Work on NCI-H358 yielded a relative viability of 0.528.
NCI-H650 was tested, and the relative viability was 0.491.
PC-3 [JPC-3] was tested, and the relative viability was 0.841.

What follows are cell lines tested with COc1cc2nc(N3CCCN(C)CC3)nc(NC3CCN(Cc4ccccc4)CC3)c2cc1OC + Cc1nc(NC(=O)N2CCC[C@H]2C(N)=O)sc1-c1ccnc(C(C)(C)C(F)(F)F)c1 [Alpelisib] (partner 2 µM) in the same assay as above. Settings: first compound 0.2 µM.
Procedure, shortened: as §1
RERF-LC-KJ showed a relative viability of 0.905.
Cell Line NCI-H358 has a relative viability of 0.935.
In the case of NCI-H650, the relative viability is reported as 1.06.
With PC-3 [JPC-3] the relative viability was 1.06.

Same assay, conditions: first compound 0.6325 µM
Work on RERF-LC-KJ yielded a relative viability of 0.878.
NCI-H358 was tested, and the relative viability was 0.888.
NCI-H650 showed a relative viability of 0.997.
For PC-3 [JPC-3], the relative viability was 0.97.

Same assay, conditions: first compound 2 µM
RERF-LC-KJ showed a relative viability of 0.902.
Work on NCI-H358 yielded a relative viability of 1.01.
NCI-H650 was tested, and the relative viability was 1.18.
PC-3 [JPC-3] showed a relative viability of 1.09.

Same assay, conditions: first compound 6.325 µM
Cell Line RERF-LC-KJ has a relative viability of 0.661.
NCI-H358 showed a relative viability of 0.533.
Work on NCI-H650 yielded a relative viability of 1.
PC-3 [JPC-3] showed a relative viability of 0.986.

These cell lines were tested with Cc1cc([C@@H](C)Nc2ccccc2C(=O)O)c2nc(N3CCOCC3)cc(=O)n2c1 [AZD6482] + CCNC(=O)c1noc(-c2cc(C(C)C)c(O)cc2O)c1-c1ccc(CN2CCOCC2)cc1 [Luminespib] (partner 0.01 µM) in the same assay as above. Settings: first compound 0.08 µM.
Procedure, shortened: as §1
RERF-LC-KJ was tested, and the relative viability was 1.16.
Cell Line NCI-H358 has a relative viability of 0.422.
Cell Line NCI-H650 has a relative viability of 0.657.
PC-3 [JPC-3] showed a relative viability of 0.634.

Same assay, conditions: first compound 0.253 µM
RERF-LC-KJ was tested, and the relative viability was 1.29.
NCI-H358 gave a relative viability of 0.485.
PC-3 [JPC-3] was tested, and the relative viability was 0.689.

Same assay, conditions: first compound 0.8 µM
With RERF-LC-KJ the relative viability was 1.27.
Cell Line NCI-H358 has a relative viability of 0.338.
Work on NCI-H650 yielded a relative viability of 0.898.
Work on PC-3 [JPC-3] yielded a relative viability of 0.655.

Same assay, conditions: first compound 2.53 µM
In the case of RERF-LC-KJ, the relative viability is reported as 0.978.
NCI-H358 gave a relative viability of 0.173.
NCI-H650 was tested, and the relative viability was 0.647.
Cell Line PC-3 [JPC-3] has a relative viability of 0.509.

Same assay, conditions: first compound 8 µM
RERF-LC-KJ showed a relative viability of 0.987.
NCI-H358 gave a relative viability of 0.199.
For NCI-H650, the relative viability was 0.509.
PC-3 [JPC-3] was tested, and the relative viability was 0.588.
